The assay deals with T1, human KCNK13 (Homo sapiens, UniProt Q9HB14).
T1 construct: expressed in transfected cells
T1 sequence (Q9HB14 1-408): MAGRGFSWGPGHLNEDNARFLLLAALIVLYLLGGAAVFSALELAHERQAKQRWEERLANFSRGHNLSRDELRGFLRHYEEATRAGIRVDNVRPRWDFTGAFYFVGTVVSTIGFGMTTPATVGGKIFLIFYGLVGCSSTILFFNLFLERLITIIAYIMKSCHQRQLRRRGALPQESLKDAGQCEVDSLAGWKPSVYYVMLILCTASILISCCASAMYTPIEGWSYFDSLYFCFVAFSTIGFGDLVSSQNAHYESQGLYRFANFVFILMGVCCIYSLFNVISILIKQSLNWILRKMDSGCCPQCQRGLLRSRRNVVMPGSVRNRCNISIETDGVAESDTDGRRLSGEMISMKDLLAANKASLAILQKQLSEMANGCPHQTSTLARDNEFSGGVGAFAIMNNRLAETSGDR
In words: KCNK13 antagonist activity, thallium flux FLIPR assay in HEK 293 cells stably expressing human KCNK13. The class given is cell-based. The conditions noted are these: HEK 293 cells stably expressing human KCNK13, Tl+ sensitive dye, compound 15 min before thallium sulfate, ten point curves; read-out: hKCNK13 IC50. The procedure: 4. Biological Efficacy of Compounds of the Invention
KCNK13 antagonist activity was determined by measuring changes in intracellular Thallium (Tl^+) concentrations using a Tl^+ sensitive fluorescent dye. The changes in fluorescent signal were monitored by Fluorescent Imaging Plate Reader (FLIPR™) technology available from Molecular Devices, LLC, US. KCNK13 mediated increases in intracellular Tl^+ concentration were readily detected by addition of a thallium sulfate Stimulus. 24 hours prior to the assay, human embryonic kidney 293 cells (HEK 293 cells) stably expressing human KCNK13 were seeded in cell culture medium in PDL coated black, clear-bottom 384-well plates (commercially available from Corning Inc., 356663) and grown overnight at 37° C., […]. On the day of the assay, cell culture media was removed and cells were loaded with potassium dye (commercially sold by Molecular Devices, LLC, US, R8222) for 1 hour at room temperature in the dark. Test compounds (at 10 point half log concentration response curves from 100 µM) were added to cells for 15 minutes prior to the addition of thallium sulfate to all wells. The IC50 values were determined from ten point concentration response curves. Curves were generated using the average of two wells for each data point.

SMILES strings stand for the structures.

As to `COc1ncc(F)cc1C(=O)N(C)Cc1c(F)cc(F)cc1C#N` [Example 61, N-(2-cyano-4,6-difluorobenzyl)-5-fluoro-2-methoxy-N-methylnicotinamide], the IC50 (commonly the concentration at which inhibition is half-maximal) was not above 1000 nM.
Then `COc1ncc(C)cc1C(=O)N(C)Cc1ccc(F)cc1F` [Example 72, N-(2,4-difluorobenzyl)-2-methoxy-N,5-dimethylnicotinamide], with not above 200 nM; and `COc1nccc(C)c1C(=O)N(C)Cc1ccc(F)cc1F` [Example 73, N-(2,4-difluorobenzyl)-2-methoxy-N,4-dimethylnicotinamide], with not above 500 nM; and `CN(C(=O)c1cc(F)cnc1OC(F)F)C1COc2cc(F)ccc21` (stereo not shown) [Example 74, 2-(difluoromethoxy)-5-fluoro-N-(6-fluoro-2,3-dihydrobenzofuran-3-yl)-N-methylnicotinamide], with not above 500 nM.
Then `CN(C(=O)c1cc(F)cnc1OC(F)F)C1COc2c(F)cccc21` (stereo not shown) [Example 75, 2-(difluoromethoxy)-5-fluoro-N-(7-fluoro-2,3-dihydrobenzofuran-3-yl)-N-methylnicotinamide], with not above 500 nM; and `Cc1cc(F)cc(CN(C)C(=O)c2cc(Cl)cnc2OC(F)F)c1` [Example 76, 5-chloro-2-(difluoromethoxy)-N-(3-fluoro-5-methylbenzyl)-N-methylnicotinamide], with not above 200 nM; and `CN(C(=O)c1cc(Cl)cnc1OC(F)F)C1COc2cc(F)ccc21` (stereo not shown) [Example 77, 5-chloro-2-(difluoromethoxy)-N-(6-fluoro-2,3-dihydrobenzofuran-3-yl)-N-methylnicotinamide], with not above 500 nM.
With `CN(Cc1cc(F)cc(F)c1)C(=O)c1cc(Cl)cnc1OC(F)F` [Example 78, 5-chloro-N-(3,5-difluorobenzyl)-2-(difluoromethoxy)-N-methylnicotinamide], the 50% inhibitory concentration (IC50) was not above 50 nM.
For `CN(Cc1cc(F)cc(Cl)c1)C(=O)c1cc(Cl)cnc1OC(F)F` [Example 79, 5-chloro-N-(3-chloro-5-fluorobenzyl)-2-(difluoromethoxy)-N-methylnicotinamide], the IC50 was not above 200 nM.
With `Cc1cccc(CN(C)C(=O)c2cc(Cl)cnc2OC(F)F)c1` [Example 80, 5-chloro-2-(difluoromethoxy)-N-methyl-N-(3-methylbenzyl)nicotinamide], the IC50 was not above 100 nM.
On to `COc1cccc(CN(C)C(=O)c2cc(Cl)cnc2OC(F)F)c1` [Example 81, 5-chloro-2-(difluoromethoxy)-N-(3-methoxybenzyl)-N-methylnicotinamide], for which the concentration for half-maximal inhibition (IC50) is not above 200 nM.
`CN(Cc1cccc(C(F)(F)F)c1)C(=O)c1cc(Cl)cnc1OC(F)F` [Example 82, 5-chloro-2-(difluoromethoxy)-N-methyl-N-(3-(trifluoromethyl)benzyl)nicotinamide]: the IC50 was not above 500 nM.
For `CC(c1cccc(F)c1)N(C)C(=O)c1cc(F)cnc1OC(F)F` (stereo not shown) [Example 83, 2-(difluoromethoxy)-5-fluoro-N-(1-(3-fluorophenyl)ethyl)-N-methylnicotinamide] the value was not above 100 nM; for `CN(Cc1cccc(Cl)c1)C(=O)c1cc(Cl)cnc1OC(F)F` [Example 84, 5-chloro-N-(3-chlorobenzyl)-2-(difluoromethoxy)-N-methylnicotinamide], not above 100 nM.
`CN(C(=O)c1cc(F)cnc1OC(F)F)C1COc2ccccc21` (stereo not shown) [Example 85, 2-(difluoromethoxy)-N-(2,3-dihydrobenzofuran-3-yl)-5-fluoro-N-methylnicotinamide]: the half-maximal inhibitory concentration (IC50) is not above 200 nM.
Consider `CN(Cc1cccc(C#N)c1)C(=O)c1cc(Cl)cnc1OC(F)F` [Example 90, 5-chloro-N-(3-cyanobenzyl)-2-(difluoromethoxy)-N-methylnicotinamide], for which the IC50 is not above 500 nM.
`CN(C(=O)c1cc(Cl)cnc1OC(F)F)C1COc2ccccc21` (stereo not shown) [Example 91, 5-chloro-2-(difluoromethoxy)-N-(2,3-dihydrobenzofuran-3-yl)-N-methylnicotinamide]: the half-maximal inhibitory concentration (IC50) is not above 500 nM.
Then `CN(C(=O)c1cc(Cl)cnc1OC(F)F)C1COc2c(F)cccc21` (stereo not shown) [Example 92, 5-chloro-2-(difluoromethoxy)-N-(7-fluoro-2,3-dihydrobenzofuran-3-yl)-N-methylnicotinamide], with not above 500 nM.
Then `CN(Cc1cccc(F)c1F)C(=O)c1cc(F)cnc1OC(F)F` [Example 93, N-(2,3-difluorobenzyl)-2-(difluoromethoxy)-5-fluoro-N-methylnicotinamide], with not above 100 nM; and `CN(Cc1ccc(F)cc1F)C(=O)c1cc(F)cnc1OC(F)F` [Example 94, N-(2,4-difluorobenzyl)-2-(difluoromethoxy)-5-fluoro-N-methylnicotinamide], with not above 100 nM.
For `CN(Cc1cccc(F)c1)C(=O)c1cc(F)cnc1OC(F)F` [Example 95, 2-(difluoromethoxy)-5-fluoro-N-(3-fluorobenzyl)-N-methylnicotinamide] the value was not above 100 nM.
In the case of `CN(Cc1cccc(F)c1)C(=O)c1cc(C(F)(F)F)cnc1OC(F)F` [Example 96, 2-(difluoromethoxy)-N-(3-fluorobenzyl)-N-methyl-5-(trifluoromethyl)nicotinamide], the IC50 was not above 500 nM.
Then `CN(Cc1cccc(F)c1)C(=O)c1cc(C2CCC2)cnc1OC(F)F` [Example 97, 5-cyclobutyl-2-(difluoromethoxy)-N-(3-fluorobenzyl)-N-methylnicotinamide], with not above 1000 nM; and `CN(Cc1cccc(OC(F)F)c1)C(=O)c1cc(Cl)cnc1OC(F)F` [Example 98, 5-chloro-2-(difluoromethoxy)-N-(3-(difluoromethoxy)benzyl)-N-methylnicotinamide], with not above 200 nM.
Regarding `CN(Cc1cccc(OC(F)(F)F)c1)C(=O)c1cc(Cl)cnc1OC(F)F` [Example 99, 5-chloro-2-(difluoromethoxy)-N-methyl-N-(3-(trifluoromethoxy)benzyl)nicotinamide], the 50% inhibitory concentration (IC50) is not above 1000 nM.
With `CN(Cc1ccc(F)cc1F)C(=O)c1cc(Cl)cnc1OC(F)F` [Example 100, 5-chloro-N-(2,4-difluorobenzyl)-2-(difluoromethoxy)-N-methylnicotinamide], the IC50 is not above 100 nM.
For `CN(Cc1cccc(F)c1)C(=O)c1cc(Cl)cnc1OC(F)F` [Example 101, 5-chloro-2-(difluoromethoxy)-N-(3-fluorobenzyl)-N-methylnicotinamide] the value was not above 100 nM; for `CN(Cc1cccc(F)c1F)C(=O)c1cc(Cl)cnc1OC(F)F` [Example 102, 5-chloro-N-(2,3-difluorobenzyl)-2-(difluoromethoxy)-N-methylnicotinamide], not above 100 nM; for `CN(Cc1cc(F)cc(F)c1)S(=O)(=O)c1cc(F)cnc1OC(F)F` [Example 103, N-(3,5-difluorobenzyl)-2-(difluoromethoxy)-5-fluoro-N-methylpyridine-3-sulfonamide], not above 200 nM.
Then `C[C@H](c1cccc(F)c1)N(C)S(=O)(=O)c1cc(F)cnc1OC(F)F` [Example 104, (R)-2-(difluoromethoxy)-5-fluoro-N-(i-(3-fluorophenyl)ethyl)-N-methylpyridine-3-sulfonamide], with not above 1000 nM; and `C[C@@H](c1cccc(F)c1)N(C)S(=O)(=O)c1cc(F)cnc1OC(F)F` [Example 105, (S)-2-(difluoromethoxy)-5-fluoro-N-(1-(3-fluorophenyl)ethyl)-N-methylpyridine-3-sulfonamide], with not above 1000 nM.
